Test results taken from PMC10257182, “Discovery of senolytics using machine learning” (Nature Communications, 2023).
Where two headings read alike, the source gives them in different places.

Legend:
Assay type in all cases: cell-based, human
[1] = system: senescent IMR90 ER:RAS cells (4-OHT-induced); assay: Nuclei count (Hoechst, high content imaging) senolytic assay, oncogene-induced senescence (OIS) model, senescent cells; details: Homo sapiens
Method in brief: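 Cells seeded, left 24 h, then dosed across a 10-point […] series (10 μM down to 10 nM) with DMSO control. After 72 h, wells were fixed, permeabilised and stained with Hoechst. Nuclei were counted by high-content imaging in senescent and non-senescent IMR90 ER:RAS cultures.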

[2] = system: senescent A549 cells (etoposide-induced); assay: Nuclei count senolytic assay, therapy-induced senescence (TIS) model, senescent cells; details: Homo sapiens, A549, Senescent cells, mean, read-out: Mean % Cell Survival
Method in brief: (§1)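 Senescence in A549 cells is induced by 48 h of 100 μM etoposide followed by three days without drug, alongside non-senescent controls. Cells are seeded, rested 24 h, then exposed 72 h to compounds (10 nM–10 μM final, […] steps, triplicate) before nuclei are counted by imaging.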

[3] = system: non-senescent control A549 cells; assay: Nuclei count senolytic assay, TIS model, non-senescent control cells; details: Homo sapiens, A549, Control cells, mean, read-out: Mean % Cell Survival
Method in brief: as §1

Cc1cnc(C(=O)N[C@H]2CCCCC/C=C\[C@@H]3C[C@@]3(C(=O)NS(=O)(=O)C3CC3)NC(=O)[C@@H]3C[C@@H](Oc4nc5ccccc5c5ccccc45)CN3C2=O)cn1 [Paritaprevir, paritaprevir, reference compound]
viability at 10 µM ([1]; IMR-90, 72 h, Senescent, log (dose) [M] -5, 72 h, mean n=3 (Fig 3C), read-out: Mean % Cell Survival): 69.5%
viability at 4.677 µM ([1]; IMR-90, 72 h, Senescent, log (dose) [M] -5.33, 72 h, mean n=3 (Fig 3C), read-out: Mean % Cell Survival): 86.5%
viability at 2.188 µM ([1]; IMR-90, 72 h, Senescent, log (dose) [M] -5.66, 72 h, mean n=3 (Fig 3C), read-out: Mean % Cell Survival): 70.9%
viability at 1 µM ([1]; IMR-90, 72 h, Senescent, log (dose) [M] -6, 72 h, mean n=3 (Fig 3C), read-out: Mean % Cell Survival): 67.9%
viability at 0.4677 µM ([1]; IMR-90, 72 h, Senescent, log (dose) [M] -6.33, 72 h, mean n=3 (Fig 3C), read-out: Mean % Cell Survival): 78.9%
viability at 0.2188 µM ([1]; IMR-90, 72 h, Senescent, log (dose) [M] -6.66, 72 h, mean n=3 (Fig 3C), read-out: Mean % Cell Survival): 76.2%
viability at 0.1 µM ([1]; IMR-90, 72 h, Senescent, log (dose) [M] -7, 72 h, mean n=3 (Fig 3C), read-out: Mean % Cell Survival): 79.8%
viability at 0.04677 µM ([1]; IMR-90, 72 h, Senescent, log (dose) [M] -7.33, 72 h, mean n=3 (Fig 3C), read-out: Mean % Cell Survival): 84.7%
viability at 0.02188 µM ([1]; IMR-90, 72 h, Senescent, log (dose) [M] -7.66, 72 h, mean n=3 (Fig 3C), read-out: Mean % Cell Survival): 86.9%
viability at 0.01 µM ([1]; IMR-90, 72 h, Senescent, log (dose) [M] -8, 72 h, mean n=3 (Fig 3C), read-out: Mean % Cell Survival): 70.3%
viability at 4.677 µM ([1]; IMR-90, Senescent cells, log (dose) [M] -5.33, individual replicates, SUP FIG 4C, read-out: % Cell Survival): 87.6%
viability at 0.1 µM ([1]; IMR-90, Senescent cells, log (dose) [M] -7, individual replicates, SUP FIG 4C, read-out: % Cell Survival): 75%
viability at 10 µM ([1]; IMR-90, Senescent, log (dose) [M] -5, read-out: % Cell Survival): 115%
viability at 4.677 µM ([1]; IMR-90, Senescent, log (dose) [M] -5.33, read-out: % Cell Survival): 110%
viability at 2.188 µM ([1]; IMR-90, Senescent, log (dose) [M] -5.66, read-out: % Cell Survival): 113%
viability at 1 µM ([1]; IMR-90, Senescent, log (dose) [M] -6, read-out: % Cell Survival): 105%
viability at 0.4677 µM ([1]; IMR-90, Senescent, log (dose) [M] -6.33, read-out: % Cell Survival): 111%
viability at 0.1 µM ([1]; IMR-90, Senescent, log (dose) [M] -7, read-out: % Cell Survival): 112%
viability at 0.04677 µM ([1]; IMR-90, Senescent, log (dose) [M] -7.33, read-out: % Cell Survival): 118%
viability at 0.01 µM ([1]; IMR-90, Senescent, log (dose) [M] -8, read-out: % Cell Survival): 107%
viability at 10 µM ([2]; log (dose) [M] -5): 113%
viability at 4.68 µM ([2]; log (dose) [M] -5.33): 107%
viability at 2.19 µM ([2]; log (dose) [M] -5.66): 112%
viability at 1 µM ([2]; log (dose) [M] -6): 108%
viability at 0.468 µM ([2]; log (dose) [M] -6.33): 112%
viability at 0.219 µM ([2]; log (dose) [M] -6.66): 104%
viability at 0.1 µM ([2]; log (dose) [M] -7): 112%
viability at 0.0468 µM ([2]; log (dose) [M] -7.33): 115%
viability at 0.0219 µM ([2]; log (dose) [M] -7.66): 103%
viability at 0.01 µM ([2]; log (dose) [M] -8): 103%
viability at 10 µM ([3]; log (dose) [M] -5): 96.8%
viability at 4.68 µM ([3]; log (dose) [M] -5.33): 93%
viability at 2.19 µM ([3]; log (dose) [M] -5.66): 96%
viability at 1 µM ([3]; log (dose) [M] -6): 95.4%
viability at 0.468 µM ([3]; log (dose) [M] -6.33): 98.6%
viability at 0.219 µM ([3]; log (dose) [M] -6.66): 97.7%
viability at 0.1 µM ([3]; log (dose) [M] -7): 95.4%
viability at 0.0468 µM ([3]; log (dose) [M] -7.33): 95.7%
viability at 0.0219 µM ([3]; log (dose) [M] -7.66): 95.5%
viability at 0.01 µM ([3]; log (dose) [M] -8): 101%
